A short description of data set [1]: Ratio of total drug level in brain to plasma in Sprague-Dawley rat at 0.20 to 0.25 mg/kg, iv administered through cassette dosing after 0.25 hrs. The format is ADME, organism-based.
The nature of data set [2]: Ratio of unbound concentration in brain to plasma in Sprague-Dawley rat at 0.20 to 0.25 mg/kg, iv administered through cassette dosing after 0.25 hrs. The format is ADME, organism-based.
The target in data set [3] is Muscarinic acetylcholine receptor M4 (Homo sapiens) (UniProt P08173). Description: Positive allosteric modulation of human M4 receptor expressed in CHO cells co-expressing Gqui5 by calcium mobilization assay relative to acetylcholine. Background: Calcium assays in cells follow changes in intracellular calcium, usually with a dye or a luminescent sensor.
Data set [4] has as its target T1, Muscarinic acetylcholine receptor M4 (Rattus norvegicus, UniProt P08485).
T1 sequence (P08485 whole entry): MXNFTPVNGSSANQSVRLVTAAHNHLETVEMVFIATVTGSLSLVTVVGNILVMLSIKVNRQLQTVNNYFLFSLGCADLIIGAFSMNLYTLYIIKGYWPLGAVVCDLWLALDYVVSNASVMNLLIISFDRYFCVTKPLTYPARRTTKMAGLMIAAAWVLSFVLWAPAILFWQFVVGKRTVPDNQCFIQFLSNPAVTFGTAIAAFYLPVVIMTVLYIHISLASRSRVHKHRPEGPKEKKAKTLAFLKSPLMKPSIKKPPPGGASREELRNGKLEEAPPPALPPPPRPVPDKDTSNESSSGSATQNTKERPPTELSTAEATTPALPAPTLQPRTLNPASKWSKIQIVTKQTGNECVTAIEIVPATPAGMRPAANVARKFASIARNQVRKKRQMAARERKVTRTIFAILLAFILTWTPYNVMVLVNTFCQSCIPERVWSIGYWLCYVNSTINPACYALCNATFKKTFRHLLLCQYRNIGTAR
In words: Positive allosteric modulation of rat M4 receptor expressed in CHO cells co-expressing Gqui5 by calcium mobilization assay. Format: functional, cell-based.

Data set [5] addresses T2, Muscarinic acetylcholine receptor M4 (Rattus norvegicus) (UniProt P08485).
T2 sequence (whole entry): T1 sequence (P08485 whole entry)
Description: Positive allosteric modulation of rat M4 receptor expressed in CHO cells co-expressing Gqui5 by calcium mobilization assay relative to acetylcholine. Format: functional, cell-based.

Data set [6] concerns the target T3, Muscarinic acetylcholine receptor M4 (Homo sapiens) (UniProt P08173).
T3 sequence (whole entry): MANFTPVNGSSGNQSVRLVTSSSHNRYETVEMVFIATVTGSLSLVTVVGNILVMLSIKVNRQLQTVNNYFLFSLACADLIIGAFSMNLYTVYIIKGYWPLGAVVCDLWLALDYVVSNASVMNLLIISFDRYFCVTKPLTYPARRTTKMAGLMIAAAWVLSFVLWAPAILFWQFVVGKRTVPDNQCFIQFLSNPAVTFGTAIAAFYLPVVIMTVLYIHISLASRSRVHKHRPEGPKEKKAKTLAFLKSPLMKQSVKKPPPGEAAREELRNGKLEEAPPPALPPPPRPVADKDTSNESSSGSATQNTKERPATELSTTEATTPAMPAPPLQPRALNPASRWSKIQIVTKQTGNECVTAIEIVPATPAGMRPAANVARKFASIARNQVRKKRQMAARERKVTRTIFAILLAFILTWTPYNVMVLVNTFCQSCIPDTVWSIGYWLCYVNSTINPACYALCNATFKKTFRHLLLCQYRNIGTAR
Description: Positive allosteric modulation of human M4 receptor expressed in CHO cells co-expressing Gqui5 by calcium mobilization assay relative to acetylcholine. Format: functional, cell-based.

Data set [7] deals with T4, Muscarinic acetylcholine receptor M4 (Homo sapiens, UniProt P08173).
T4 sequence (P08173 whole entry): T3 sequence (whole entry)
In words: Positive allosteric modulation of human M4 receptor expressed in CHO cells co-expressing Gqui5 by calcium mobilization assay. The format is functional, cell-based.

Data set [8] is described as follows: Fraction unbound in human. Format: ADME.
The nature of data set [9]: Fraction unbound in rat. The format is ADME.
A short description of data set [10]: Ratio of total drug level in brain to plasma (unknown origin). Format: ADME, cell-free. Conditions: brain and plasma.
Data set [11] deals with T4, Muscarinic acetylcholine receptor M4. Description: Positive allosteric modulation of human M4 receptor.
Data set [12] deals with T3, Muscarinic acetylcholine receptor M4 (Homo sapiens). In words: Positive allosteric modulation of human M4 receptor relative to acetylcholine.

From ChEMBL document CHEMBL3872258, “Challenges in the development of an M4 PAM in vivo tool compound: The discovery of VU0467154 and unexpected DMPK profiles of close analogs” (Bioorg Med Chem Lett, 2017) come the findings set out here.

The structures appear in SMILES notation.

On to `Cc1nnc2sc(C(=O)NCc3ccc(S(=O)(=O)C4CC4)cc3)c(N)c2c1C`, for which the Kp in data set [1] is 0.05. For the same compound, in data set [2], the “K(p,uu,brain)” value is given as 0.29. In addition, the maximal response (Emax) in data set [3] was 67.1%. Besides, the EC50 in data set [4] worked out at 22.4 nM.
On to `Cc1nnc2sc(C(=O)NCc3ccc([S+](C)[O-])cc3)c(N)c2c1C` (stereo not given), for which, in data set [3], the maximal effect (Emax) amounted to 74.2%. In [4], the EC50 was determined as 139 nM.
Take `Cc1nnc2sc(C(=O)NCc3cccc(S(C)(=O)=O)c3)c(N)c2c1C`: in [3], the maximal effect (Emax) worked out at 74.6%. For the same compound, the EC50 in data set [4] came to 417 nM.
`Cc1nnc2sc(C(=O)NCc3ccc(S(=O)(=O)C(F)F)c(F)c3)c(N)c2c1C`: the partition ratio (Kp) entry in data set [1] (BLD = below limit of detection) is “Bld”. Moreover, in [2] (BLD = below limit of detection), the “K(p,uu,brain)” value is on record as “Bld”. Besides, in data set [3], the Emax was determined as 76.7%. The EC50 in data set [4] came out at 23.4 nM.
As to `Cc1nnc2sc(C(=O)NCc3ccc(S(C)(=O)=O)cc3)c(N)c2c1C`, the partition ratio (Kp) in data set [1] was 0.04. The Emax was 72.6% in data set [5] and 73.8% in [6]. In data set [2], the “K(p,uu,brain)” value stood at 0.14. In addition, the EC50 in data set [4] came out at 51.3 nM; in [7] (read-out: EC50) it was 363 nM.
`COc1ccc(CNC(=O)c2sc3nc(C)cc(C)c3c2N)cc1`: the fraction unbound in [8] amounted to 0.004; in data set [9] it was 0.015. For the same compound, the partition ratio (Kp) in [10] worked out at 0.38.
On to `Cc1nnc2sc(C(=O)NCc3ccc(S(=O)(=O)C(C)C)cc3)c(N)c2c1C`, for which, in data set [1], the partition ratio (Kp) was 0.07. The “K(p,uu,brain)” value in data set [2] came to 0.67. In addition, in data set [3], the maximum response (Emax) worked out at 76.8%. In [4], the EC50 came out at 47.9 nM.
Consider `Cc1nnc2sc(C(=O)NCc3ccc(S(C)(=O)=O)c(F)c3)c(N)c2c1C`, for which the partition ratio (Kp) in data set [1] turned out to be 0.51. Further, the “K(p,uu,brain)” value in [2] stood at 2.8. In [3], the Emax was found to be 69.2%. The EC50 in data set [4] turned out to be 57.7 nM.
For the compound `COc1ccc(CNC(=O)c2sc3nnc(C)c(C)c3c2N)cc1`, the unbound share (fraction unbound) was 0.035 in [8] and 0.022 in [9]. In data set [11], this compound gave an EC50 of 150 nM. The same compound displayed an Emax in data set [12] of 83%. Further, in data set [10], the Kp stood at 0.28.
On to `CSc1ccc(CNC(=O)c2sc3nnc(C)c(C)c3c2N)cc1`, for which the partition ratio (Kp) in data set [1] is 0.13. In addition, the results for the Emax in data set [5] and in data set [6] were 75.6% and 71.9%, respectively. Besides, in data set [2], the “K(p,uu,brain)” value was 0.48. Further, the EC50 in data set [4] is 11.2 nM; in data set [7] (read-out: EC50) it was 60.2 nM.
In the case of `Cc1nnc2sc(C(=O)NCc3ccc(S(=O)(=O)CF)cc3)c(N)c2c1C`, in data set [1] (BLD = below limit of detection), the Kp entry is reported as “Bld”. Besides, in [2] (BLD = below limit of detection), the “K(p,uu,brain)” value is given as “Bld”. In addition, the Emax in data set [6] and in [3] was 62.5% each time. Besides, the EC50 in data set [4] was 21.9 nM; in data set [7] (read-out: pEC50 (converted)), 209 nM.
Take `Cc1nnc2sc(C(=O)NCc3ccc(S(=O)(=O)C(C)(C)C)cc3)c(N)c2c1C`: in data set [1], the concentration ratio (Kp) is listed as 0.11. Also, the “K(p,uu,brain)” value in data set [2] amounted to 0.34. Also, the maximal effect (Emax) in [3] came out at 72.1%. The EC50 in [4] was determined as 44.7 nM.

Usually Kp stands for the ratio of the level in a tissue or fluid to that in plasma or blood. In general, Emax refers to the greatest response seen or fitted, relative to the assay's reference. For orientation: fraction unbound means free concentration divided by total concentration. A higher fraction unbound goes with much free substance.
